Source: patent publication US6451807B1, “Methods of treating sexual dysfunction in an individual suffering from a retinal disease, class 1 congestive heart failure, or myocardial infarction using a PDE5 inhibitor” (Lilly Icos, LLC., priority 1999, dated 2002)
pIC50: −log10 of the molar value.

What was measured:
Bovine PDE6 = target: T1, Bovine PDE6 (Bos taurus, UniProt P11541+P23439); assay: PDE6 enzyme inhibition, IC50 determination; assay type: biochemical
T1 construct: Hypotonic extracts were prepared by suspending isolated ROS; tissue Dr. N. Virmaux, INSERM U338, Strasbourg; host or cells: bovine retina, rod outer segment hypotonic extract
T1 sequence (P11541 2-856 limits assumed): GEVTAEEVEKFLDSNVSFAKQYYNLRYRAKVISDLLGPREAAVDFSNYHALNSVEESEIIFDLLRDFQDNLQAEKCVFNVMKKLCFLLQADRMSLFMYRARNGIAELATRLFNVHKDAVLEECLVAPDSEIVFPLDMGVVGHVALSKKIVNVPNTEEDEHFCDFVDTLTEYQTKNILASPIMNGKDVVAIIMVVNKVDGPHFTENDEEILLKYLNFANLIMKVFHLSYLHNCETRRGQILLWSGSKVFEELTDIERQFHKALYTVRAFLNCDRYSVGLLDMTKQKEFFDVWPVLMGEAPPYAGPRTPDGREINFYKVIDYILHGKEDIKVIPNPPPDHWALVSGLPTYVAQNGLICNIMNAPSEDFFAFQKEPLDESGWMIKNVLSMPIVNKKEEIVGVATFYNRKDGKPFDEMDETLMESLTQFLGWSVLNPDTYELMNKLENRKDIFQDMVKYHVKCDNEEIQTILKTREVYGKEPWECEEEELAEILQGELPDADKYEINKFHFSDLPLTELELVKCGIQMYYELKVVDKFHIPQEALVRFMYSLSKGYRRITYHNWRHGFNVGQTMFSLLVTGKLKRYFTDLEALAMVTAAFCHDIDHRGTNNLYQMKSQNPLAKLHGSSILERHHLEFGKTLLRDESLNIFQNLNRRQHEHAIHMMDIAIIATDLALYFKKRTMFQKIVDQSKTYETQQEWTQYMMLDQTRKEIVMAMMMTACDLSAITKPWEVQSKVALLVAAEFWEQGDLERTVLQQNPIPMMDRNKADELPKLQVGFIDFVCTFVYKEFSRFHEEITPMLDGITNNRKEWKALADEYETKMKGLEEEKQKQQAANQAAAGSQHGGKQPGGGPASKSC
T1 sequence (P23439 2-850 limits assumed): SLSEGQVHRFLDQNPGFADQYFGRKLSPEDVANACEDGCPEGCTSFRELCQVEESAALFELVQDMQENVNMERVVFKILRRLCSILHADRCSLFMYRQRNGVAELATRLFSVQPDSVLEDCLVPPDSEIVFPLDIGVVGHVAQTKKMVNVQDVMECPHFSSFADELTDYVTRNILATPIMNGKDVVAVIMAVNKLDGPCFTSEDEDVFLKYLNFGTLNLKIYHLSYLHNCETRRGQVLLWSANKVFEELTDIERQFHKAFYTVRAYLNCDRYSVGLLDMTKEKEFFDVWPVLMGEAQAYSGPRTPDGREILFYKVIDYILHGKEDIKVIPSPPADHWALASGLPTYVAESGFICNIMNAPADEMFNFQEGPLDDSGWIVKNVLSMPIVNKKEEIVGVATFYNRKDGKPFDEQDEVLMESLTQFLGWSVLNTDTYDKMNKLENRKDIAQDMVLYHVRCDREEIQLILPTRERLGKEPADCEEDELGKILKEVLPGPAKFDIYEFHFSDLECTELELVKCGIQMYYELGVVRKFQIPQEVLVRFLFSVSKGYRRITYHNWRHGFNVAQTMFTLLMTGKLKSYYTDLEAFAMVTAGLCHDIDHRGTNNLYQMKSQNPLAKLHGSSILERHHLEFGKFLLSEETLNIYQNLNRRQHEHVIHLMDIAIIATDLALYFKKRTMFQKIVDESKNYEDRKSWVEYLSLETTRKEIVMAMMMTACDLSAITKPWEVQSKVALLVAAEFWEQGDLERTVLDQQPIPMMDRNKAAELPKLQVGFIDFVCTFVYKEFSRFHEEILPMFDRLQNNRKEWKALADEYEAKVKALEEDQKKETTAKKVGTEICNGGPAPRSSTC
T1 sequence (P04972 1-87 partner): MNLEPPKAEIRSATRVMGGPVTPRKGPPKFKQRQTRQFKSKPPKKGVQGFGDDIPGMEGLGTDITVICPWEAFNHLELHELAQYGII
Description: Bovine PDE6 was supplied by Dr. N. Virmaux, INSERM U338, Strasbourg. Bovine retinas were prepared as described by Virmaux et al., FEBS Letters, 12(6), pp. 325-328 (1971) and see also, A. Sitaramayya et al., Exp. Eye Res., 25, pp. 163-169 (1977). Briefly, unless stated otherwise, all operations were done in the cold and in dim red light. Eyes were kept in the cold and in the dark for up to four hours after slaughtering.
Preparation of bovine retinal outer segment (ROS) basically followed procedures described by Schichi et al., J. Biol. Chem., 224:529 (1969). In a typical experiment, 35 bovine retinas were ground in a mortar with 35 mL 0.066 M phosphate buffer, pH 7.0, made up to 40% with sucrose, followed by homogenization in a Potter homogenizer (20 up and down strokes). The suspension was centrifuged at 25,000×g for 20 minutes. The pellet was homogenized in 7.5 mL 0.006 M phosphate buffer (40% in sucrose), and carefully layered under 7.5 mL of phosphate buffer (containing no sucrose). Centrifugation was conducted in a swing-out rotor at 45,000×g for 20 minutes, and produced a pellet which is black at the bottom, and also a red band at the interface 0.066 M. phosphate—40% sucrose/0.066 M phosphate (crude ROS). The red material at the interface was removed, diluted with phosphate buffer, spun down to a pellet, and redistributed in buffered 40% sucrose as described above. This procedure was repeated 2 or 3 times until no pellet was formed. The purified ROS was washed in phosphate buffer and finally spun down to a pellet at 25,000×g for 20 minutes. All materials were then kept frozen until used.
Hypotonic extracts were prepared by suspending isolated ROS in 10 mM Tris-Cl pH 7.5, 1 mM EDTA, and 1 mM dithioerythritol, followed by centrifugation at 100,000×g for 30 minutes.
The preparation was reported to have a specific activity of about 35 nmoles cGMP hydrolyzed per minute per milligram protein.
Biophys. Acta, 384:430 (1975).

[1] = tested on: patients in need thereof (erectile function); assay: Two randomized, double-blinded placebo controlled studies, daily and on demand dosing (Example 6); assay type: in vivo, human
Description: In two randomized, double-blinded placebo controlled studies, the compound of structural formula (I), at a range of doses in both daily dosing and for on demand therapy for sexual encounters and intercourse in the home setting, was administered to patients in need thereof.
Erectile function was assessed by the International Index of Erectile Function (IIEF) (Rosen et al., Urology, 49, pp. 822-830 (1997)), diaries of sexual attempts, and a global satisfaction question.

With CN1CC(=O)N2[C@H](c3ccc4c(c3)OCO4)c3[nH]c4ccccc4c3C[C@@H]2C1=O [Compound 5, (6R-trans)-6-(1,3-benzodioxol-5-yl)-2,3,6,7,12,12a-hexahydro-2-methylpyrazino[1′,2′:1,6]pyrido[3,4-b]indole-1,4-dione] the pIC50 (Bovine PDE6) was 5.47, the efficacy ([1]; 10 mg dose) was “fully efficacious” and the side effects ([1]; 10 mg dose) was “minimal side effects (no flushing and no reports of blue vision)”. The efficacy ([1]; doses from 5 to 20 mg) was “efficacious”, the flushing ([1]; doses from 5 to 20 mg) was “no flushing” and the vision abnormalities ([1]; doses from 5 to 20 mg) was “no reports of vision abnormalities”. The “erectile function as assessed by all endpoints (IIEF, diaries of sexual attempts, global satisfaction question)” value ([1]; in vivo) was “significantly improved erectile function” and the erectile function ([1]; on demand and daily dose regimens, doses between 1 and 20 mg) was “significantly improved erectile function”.
